ChEMBL document CHEMBL3352341, “Design, synthesis and biological characterization of thiazolidin-4-one derivatives as promising inhibitors of Toxoplasma gondii” (Eur J Med Chem, 2014)
The source made the active and inactive calls. The rule behind the calls is not given here.

Experiments:
[1] = Cytotoxicity against human foreskin fibroblasts after 5 days by colorimetric assay; format: cell-based; details: human foreskin fibroblasts (HFF cells), read-out: TD50
[2] = Therapeutic index, ratio of TD50 for human foreskin fibroblasts to IC50 for Toxoplasma gondii infected in human foreskin fibroblasts; details: read-out: TI
Toxoplasma gondii [3] = assay: Antiparasitic activity against Toxoplasma gondii infected in human foreskin fibroblasts assessed as tachyzoite growth inhibition after 5 days by colorimetric assay; format: functional, organism-based; details: 120 h
Toxoplasma gondii [4] = assay: Antiparasitic activity against Toxoplasma gondii infected in human foreskin fibroblasts assessed as inhibition of replication measured as decrease in the number of tachyzoites in vacuole at 10 uM after 24 hrs by fluorescence assay; format: functional, organism-based

SMILES	CC50 at 120 h [1]	selectivity ratio [2]	IC50 (Toxoplasma gondii [3])	IC90 (Toxoplasma gondii [3])	inhibition (Toxoplasma gondii [4])
O=C1CS/C(=N/N=C\c2ccncc2)N1Cc1ccccc1	203 µM	2	118 µM	304 µM	Active
O=C1CSC(NN=C2CCCCCC2)=N1	≥ 320 µM	5	111 µM	387 µM	Active
CC(C)=C/C(C)=N\N=C1/NC(=O)CS1	≥ 320 µM	6	97 µM	316 µM	Active
O=C1CS/C(=N/N=C2CCCCC2)N1Cc1ccccc1	≥ 320 µM	2	255 µM	662 µM	Active
C=CCC/C(C)=N\N=C1/NC(=O)CS1	≥ 320 µM	3	195 µM	2220 µM	Active
C/C(=N/N=C1\NC(=O)CS1)C1CCCCC1	≥ 320 µM	10	55 µM	283 µM	Active
CC1CC/C(=N/N=C2/SCC(=O)N2Cc2ccccc2)C1 (configuration not stated)	≥ 320 µM	3	184 µM	845 µM	Active
C/C(=N/N=C1\NC(=O)CS1)c1cccnc1	≥ 320 µM	8	74 µM	406 µM	Active
O=C1CS/C(=N/N=C2CCCCCC2)N1Cc1ccccc1	≥ 320 µM	2	255 µM	1530 µM	Active
O=C1CS/C(=N/N=C\c2c[nH]c3ccccc23)N1	≥ 320 µM	3	166 µM	474 µM	Active
CC1CCCC/C1=N/N=C1\NC(=O)CS1 (configuration not stated)	≥ 320 µM	2	247 µM	785 µM	Active
CC(C)(C)C1CCCC/C1=N/N=C1\NC(=O)CS1 (configuration not stated)	≥ 320 µM	3	218 µM	693 µM	Active
O=C1CS/C(=N/N=C\c2cccs2)N1	≥ 320 µM	4	135 µM	2680 µM	Active
O=C1CS/C(=N/N=C\c2c[nH]c3ccccc23)N1Cc1ccccc1	102 µM	2	52 µM	177 µM	Active
C/C(=N/N=C1/SCC(=O)N1Cc1ccccc1)C1CCCCC1	60 µM	3	24 µM	71 µM	Active
CCCCC/C(C)=N\N=C1/NC(=O)CS1	320 µM	3	110 µM	686 µM	Active
CCC/C(C)=N\N=C1/NC(=O)CS1	≥ 320 µM	2	262 µM	1060 µM	Active
C/C(=N/N=C1/SCC(=O)N1Cc1ccccc1)c1cc2ccccc2oc1=O	≥ 320 µM	–	≥ 320 µM	–	Active
O=C1CS/C(=N/N=C\c2cccs2)N1Cc1ccccc1	54 µM	< 1	270 µM	1660 µM	Active
CCCC/C(CC)=N\N=C1/NC(=O)CS1	≥ 320 µM	6	89 µM	288 µM	Active

SMILES	CC50 at 120 h [1]	selectivity ratio [2]	IC50 (Toxoplasma gondii [3])	IC90 (Toxoplasma gondii [3])	inhibition (Toxoplasma gondii [4])
C/C(=N/N=C1/SCC(=O)N1Cc1ccccc1)c1ccccc1	≥ 320 µM	9	61 µM	294 µM	Active
CC1CCC(=N/N=C2\NC(=O)CS2)CC1 (configuration not stated)	≥ 320 µM	2	226 µM	777 µM	Active
CC(C)=C/C(C)=N\N=C1\SCC(=O)N1Cc1ccccc1	67 µM	3	23 µM	186 µM	Active
C=CCC/C(C)=N\N=C1\SCC(=O)N1Cc1ccccc1	≥ 320 µM	3	207 µM	885 µM	Active
O=C1CS/C(=N/N=C\c2cccnc2)N1	≥ 320 µM	11	52 µM	268 µM	Active
CC1CCC(=N/N=C2/SCC(=O)N2Cc2ccccc2)CC1 (configuration not stated)	286 µM	3	88 µM	242 µM	Active
O=C1CS/C(=N/N=C2CCCC2)N1Cc1ccccc1	≥ 320 µM	5	105 µM	330 µM	Active
O=C1CSC(NN=C2CCCCCCC2)=N1	309 µM	4	79 µM	290 µM	Active
CC(C)(C)C1CCCC/C1=N/N=C1/SCC(=O)N1Cc1ccccc1 (configuration not stated)	≥ 320 µM	6	102 µM	295 µM	Active
C/C(=N/N=C1\NC(=O)CS1)c1ccco1	≥ 320 µM	–	≥ 320 µM	–	Active
C/C(=N/N=C1\NC(=O)CS1)c1ccccn1	16 µM	6	2.9 µM	7 µM	Active
CC1CCC/C1=N/N=C1/SCC(=O)N1Cc1ccccc1 (configuration not stated)	≥ 320 µM	11	53 µM	329 µM	Active
O=C1CS/C(=N/N=C2CCCCCCC2)N1Cc1ccccc1	205 µM	5	43 µM	508 µM	Active
O=C1CS/C(=N/N=C\c2ccc3c(c2)OCO3)N1	≥ 320 µM	–	≥ 320 µM	–	Active
C/C(=N/N=C1\NC(=O)CS1)c1ccc2ccccc2c1	≥ 320 µM	10	56 µM	175 µM	Active
CCCCC/C(C)=N\N=C1\SCC(=O)N1Cc1ccccc1	88 µM	5	19 µM	120 µM	Active
CC1CCC/C(=N/N=C2\NC(=O)CS2)C1 (configuration not stated)	202 µM	6	36 µM	310 µM	Active
O=C1CS/C(=N/N=C\c2ccco2)N1Cc1ccccc1	≥ 320 µM	5	111 µM	396 µM	Active
CC/C(C)=N\N=C1/NC(=O)CS1	≥ 320 µM	4	133 µM	1160 µM	Active
C/C(=N/N=C1/SCC(=O)N1Cc1ccccc1)c1ccccn1	≥ 320 µM	–	≥ 320 µM	–	Active
